One block for each sequence: values may come before it.
Target: T1, MAL^TIR (Homo sapiens, UniProt P58753)
T1 construct: MAL (residues 79–221); 6xHis; made in house; host or cells: E. coli BL21 (DE3)
Experiment: T‐Surf phage library (P8 and P3) selection against MAL^TIR, four rounds, NGS read counts
Assay type: binding
Settings: for P3_MAL Rank (after) / P3_MAL Rank (before): P3 library; for P8_MAL Rank (after) / P8_MAL Rank (before): P8 library; for Population: 4th round of selection against MAL TIR, share of NGS reads
Procedure, shortened: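 P8 and P3 T‐Surf libraries panned against plate-coated TIR domains (5 µg mL^−1), 1 h binding at RT, acid elution and TG1/helper-phage amplification per round. After four rounds, pools were PCR-barcoded and sequenced (NovaSeq, 100 bp paired-end, Phred ≥30); peptides ranked by read counts.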

[1] = selection against MAL, rank by count after grouping
[2] = selection against MAL, rank by count before grouping
[3] = P8_MAL: rank by count after grouping
[4] = P8_MAL: rank by count before grouping
[5] = 4R selection against MAL, rank after grouping
[6] = 4R selection against MAL, rank before grouping
[7] = selection against MAL TIR, rank by count after grouping
[8] = selection against MAL TIR, rank by count before grouping
[9] = P3_MAL pool: P3 T-Surf phage library
[10] = selection against MAL, rank after grouping
[11] = selection against MAL, rank before grouping
[12] = P8_MAL pool: P8 T-Surf phage library
[13] = P3_MAL: rank by count after grouping
[14] = P3_MAL: rank by count before grouping

T1 sequence (P58753 79-221): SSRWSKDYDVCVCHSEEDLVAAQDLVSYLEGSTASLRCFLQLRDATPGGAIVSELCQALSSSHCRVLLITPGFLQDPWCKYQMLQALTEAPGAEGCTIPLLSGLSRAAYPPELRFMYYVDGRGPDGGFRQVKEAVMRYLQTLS

P3_MAL Rank (after) [1]: 739 | P3_MAL Rank (before) [2]: 2454
Sequence: RAFVAHPQELIQKKQQ

Rank (after) [3]: 111 | Rank (before) [4]: 2159
Sequence: LLFWGSLKQLLRSDGR

Rank (after) [3]: 155 | Rank (before) [4]: 2458
Sequence: SEFIQKIILCMNQKIV

P8_MAL Rank (after) [5]: 592 | P8_MAL Rank (before) [6]: 2396
Sequence: HFFWVKLKSILGETSL

Rank (after) [3]: 424 | Rank (before) [4]: 1661
Sequence: AFFWAQLKSVLGNPPV

P8_MAL Rank (after) [7]: 212 | P8_MAL Rank (before) [8]: 1278
Sequence: WFYERLVSLIQRDTTV

Population [9]: 0.00488%
Sequence: SSFREGLWRLLELNKK

P8_MAL Rank (after) [10]: 482 | P8_MAL Rank (before) [11]: 1378
Sequence: WFMMKFRTVLDRVPEV

Rank (after) [3]: 180 | Rank (before) [4]: 2633
Sequence: TFPGHLYNALVQAGIL

P8_MAL Rank (after) [5]: 649 | P8_MAL Rank (before) [6]: 2136
Sequence: LFFGKALNSCCVAIA

P3_MAL Rank (after) [10]: 556 | P3_MAL Rank (before) [11]: 2639
Sequence: PEKDHGGENAIIKNIE

P8_MAL Rank (after) [7]: 234 | P8_MAL Rank (before) [8]: 876
Sequence: DPQDLEWFYERLFSQM

Population [12]: 0.00309%
Sequence: VFLYTFLINLTHPTNF

P3_MAL Rank (after) [5]: 643 | P3_MAL Rank (before) [6]: 2733
Sequence: PNLRTKVMNYLIRTKP

P3_MAL Rank (after) [5]: 669 | P3_MAL Rank (before) [6]: 1224
Sequence: WFFQEKVKIFEARKTI

Population [12]: 0.00278%
Sequence: WFYERLVILILRDTKV

P3_MAL Rank (after) [5]: 579 | P3_MAL Rank (before) [6]: 2665
Sequence: PSEIRKQTGSLPKAFA

Rank (after) [13]: 444 | Rank (before) [14]: 1551
Sequence: YTALTNSASHTFRGND

P8_MAL Rank (after) [7]: 219 | P8_MAL Rank (before) [8]: 2547
Sequence: TFLCHQYNALVQAGIH

Rank (after) [3]: 130 | Rank (before) [4]: 835
Sequence: AFFWEQLRTVLGKPR

Population [9]: 0.00488%
Sequence: LNLRTKVLNYLMRTKT

Rank (after) [3]: 418 | Rank (before) [4]: 1716
Sequence: AFFWPQLKSMLRNTTV

Rank (after) [13]: 464 | Rank (before) [14]: 3174
Sequence: SSFREGLSPLAELSGK

P3_MAL Rank (after) [7]: 252 | P3_MAL Rank (before) [8]: 3108
Sequence: SPRKNLVSNLIEEFTR

P8_MAL Rank (after) [7]: 274 | P8_MAL Rank (before) [8]: 1105
Sequence: LFYERLVSLMLRDTKG

Rank (after) [13]: 127 | Rank (before) [14]: 275
Sequence: GFLSHLRHHLQAKDH

Rank (after) [3]: 429 | Rank (before) [4]: 2726
Sequence: KLLWEKCTFFLPSLSR

P3_MAL Rank (after) [1]: 714 | P3_MAL Rank (before) [2]: 1466
Sequence: YAFTRHLHRYLVHRGV

P8_MAL Rank (after) [7]: 255 | P8_MAL Rank (before) [8]: 1859
Sequence: AFLYTFLINPTHPTNS

Rank (after) [13]: 124 | Rank (before) [14]: 594
Sequence: RRLKWKDALHQFHSWV

P3_MAL Rank (after) [7]: 285 | P3_MAL Rank (before) [8]: 1360
Sequence: YAFTGHVDRYLVQRGV

P8_MAL Rank (after) [5]: 666 | P8_MAL Rank (before) [6]: 2308
Sequence: RNFVADLFQALADKGI

P8_MAL Rank (after) [7]: 272 | P8_MAL Rank (before) [8]: 1581
Sequence: AFFLAQLKSEPTNPTM

P8_MAL Rank (after) [5]: 631 | P8_MAL Rank (before) [6]: 1693
Sequence: AFFWEQLRTVLRKPTT

Rank (after) [13]: 157 | Rank (before) [14]: 3362
Sequence: NQWRNALTAAAHLSGL

P3_MAL Rank (after) [10]: 523 | P3_MAL Rank (before) [11]: 1204
Sequence: FMSHLYQGLKIVAFL

Population [12]: 0.00278%
Sequence: WFYERLLSLILRDTKV

P3_MAL Rank (after) [1]: 733 | P3_MAL Rank (before) [2]: 2370
Sequence: RGFLSHLRHHLQVKEQ

Rank (after) [3]: 108 | Rank (before) [4]: 1426
Sequence: WLYERLVSLILRDTQV

P8_MAL Rank (after) [7]: 211 | P8_MAL Rank (before) [8]: 2730
Sequence: KLLWVKFKFFLPSLSR

P8_MAL Rank (after) [7]: 193 | P8_MAL Rank (before) [8]: 2118
Sequence: LFFWESLKQRLRSDVR

P3_MAL Rank (after) [1]: 707 | P3_MAL Rank (before) [2]: 1752
Sequence: GCLYQAFARAGFKIFM

P3_MAL Rank (after) [1]: 757 | P3_MAL Rank (before) [2]: 1361
Sequence: YAFTGHVPGYLVQRGV

P8_MAL Rank (after) [5]: 669 | P8_MAL Rank (before) [6]: 2109
Sequence: LFFWESLKQLLRTVLGKPTM

Population [9]: 0.00413%
Sequence: YAFTGHLHRSLVQRGV

P3_MAL Rank (after) [5]: 598 | P3_MAL Rank (before) [6]: 2037
Sequence: ESGKLASGAGKSGQT

P8_MAL Rank (after) [7]: 235 | P8_MAL Rank (before) [8]: 2291
Sequence: RNNFIGHQYQALYRSR

Rank (after) [3]: 398 | Rank (before) [4]: 1377
Sequence: WFMMKFRTVLYHVNYV

P8_MAL Rank (after) [1]: 700 | P8_MAL Rank (before) [2]: 2491
Sequence: SLLYDHLRRLGIRAIM

Rank (after) [13]: 184 | Rank (before) [14]: 1689
Sequence: VLHKFIGYLRDALQHR

P3_MAL Rank (after) [1]: 694 | P3_MAL Rank (before) [2]: 1290
Sequence: WHFHVRLCLRKLLQAM

P8_MAL Rank (after) [10]: 503 | P8_MAL Rank (before) [11]: 1961
Sequence: ALPYTFLINLTHPTTF

Population [12]: 0.0034%
Sequence: ALLYTFLINLTHPTNF

— article PMC11714206, “Massively Parallel Screening of Toll/Interleukin‐1 Receptor (TIR)‐Derived Peptides Reveals Multiple Toll‐Like Receptors (TLRs)‐Targeting Immunomodulatory Peptides” (Advanced Science, 2024)
